Here are results for one molecule from ChEMBL document CHEMBL1811857, “Targeting HIV entry through interaction with envelope glycoprotein 120 (gp120): synthesis and antiviral evaluation of 1,3,5-triazines with aromatic amino acids” (J Med Chem, 2011).

The subject of series [1] is Human immunodeficiency virus 1. The experiment in a line: Antiviral activity against HIV1 3a-L infected in human PBMC cells assessed as inhibition of virus-induced cytopathicity after 4 days. The following applies: Human immunodeficiency virus 1, 3a-L, 96 h. In kind it is functional, organism-based. (Damage to the host cells serves as the signal in cytopathic effect assays.)

For a further series, the system named is CCRF-CEM. The series can be described thus: Cytotoxicity against human CEM cells after 4 days by Coulter counter analysis. The following applies: 96 h, read-out: EC50 (the source's name). In kind it is cell-based.
The test system of series [2] is Human immunodeficiency virus 2. The series can be described thus: Antiviral activity against HIV2 ROD infected in human CEM cells assessed as inhibition of virus-induced cytopathicity after 4 days. The note with it: Human immunodeficiency virus 2, ISOLATE ROD, CCRF-CEM, 96 h. The format is functional, organism-based.
Series [3] has as its system Human immunodeficiency virus 1. The series can be described thus: Antiviral activity against HIV1 3B infected in human CEM cells assessed as inhibition of virus-induced cytopathicity after 4 days. In kind it is functional, organism-based. The note with it: Human immunodeficiency virus 1, 3B, CCRF-CEM, 96 h.
Series [4] relates to PBMC. The experiment in a line: Mitogenic activity in human PBMC after 3 days. In kind it is functional, cell-based.
Series [5] deals with PBMC. The experiment in a line: Induction of CD25 expression in human PBMC after 3 days by FACS analysis. In kind it is functional, cell-based. Background: In flow cytometry, cells or beads pass a laser one at a time.
Series [6] deals with PBMC. The series can be described thus: Induction of CD69 expression in human PBMC after 3 days by FACS analysis. In kind it is functional, cell-based.
Series [7] has as its system PBMC. The experiment in a line: Induction of HLA-DR expression in human PBMC after 3 days by FACS analysis. The format is functional, cell-based.
In series [8] the test system is PBMC. The experiment in a line: Cytotoxicity against human PBMC at 50 uM after 3 days. The following applies: 72 h. In kind it is cell-based.
Series [9] concerns Human immunodeficiency virus 1. The experiment in a line: Binding affinity to HIV1 3B recombinant gp-120 at 12.5 uM after 5 mins by surface plasmon resonance analysis. On the technique in general: Surface plasmon resonance follows binding to a sensor surface in real time, without labels.
Series [10] concerns Human immunodeficiency virus 1. The series can be described thus: Binding affinity to HIV1 3B recombinant gp-120 at 50 uM after 5 mins by surface plasmon resonance analysis.
Series [11] concerns Human immunodeficiency virus 1. The series can be described thus: Binding affinity to HIV1 3B recombinant gp-120 at 12.5 uM after 5 mins by surface plasmon resonance analysis in presence of […].
The nature of series [12]: Binding affinity to HIV1 3B recombinant gp-120 after 5 mins using low density (792 RU) sensor chip by surface plasmon resonance analysis. On the set-up: species or system Human immunodeficiency virus 1.
Series [13] is described as follows: Binding affinity to HIV1 ADA recombinant gp-120 after 5 mins using low density (792 RU) sensor chip by surface plasmon resonance analysis. Details: species or system Human immunodeficiency virus 1.
Series [14] is described as follows: Binding affinity to HIV1 3B recombinant gp-120 after 5 mins using high density (10400 RU) sensor chip by surface plasmon resonance analysis. Details: species or system Human immunodeficiency virus 1.

The term EC50 denotes the concentration needed to bring the measured effect to its halfway point. By Kd is commonly meant the equilibrium constant for the complex coming apart.

Molecules are shown by their SMILES. Activity calls are given as the source filed them. The calls are words filed in the database; no cut-off is given here. A value given as a limit tells only on which side of the number the result lay.

Take `CCc1c(CNc2nc(N[C@@H](Cc3c[nH]c4ccccc34)C(=O)O)nc(N[C@@H](Cc3c[nH]c4ccccc34)C(=O)O)n2)c(CC)c(CNc2nc(N[C@@H](Cc3c[nH]c4ccccc34)C(=O)O)nc(N[C@@H](Cc3c[nH]c4ccccc34)C(=O)O)n2)c(CC)c1CNc1nc(N[C@@H](Cc2c[nH]c3ccccc23)C(=O)O)nc(N[C@@H](Cc2c[nH]c3ccccc23)C(=O)O)n1`: the EC50 in series [1] came to 20 µM; in series [2], 22 µM; in [3], 16 µM. Besides, the CC50 in the series on CCRF-CEM was > 250 µM. The result with PBMC [4], in the series with PBMC [5], in the series on PBMC [6] and in the series with PBMC [7] was inactive. Moreover, the Activity entry in the series on PBMC [8] is listed as “Non-toxic”. In addition, the result in series [9], in [10] and in series [11] was Active. Moreover, the Kd in [12] stood at 1.61 µM; in series [13], 2.51 µM; in [14] it was 2.61 µM.
